Laboratory results as given in US20070155806A1 (The University of Tokyo, priority 2005, published 2007).

Columns and labels:
Assay type in all cases: biochemical
[1] = molecular target: T1, luciferase (firefly) (Photinus pyralis, UniProt P08659); assay: Luminescence characteristics with firefly luciferase (Example 3); conditions: for relative intensity: calculated on the basis of the intensity obtained for aminoluciferin; for λmax(nm): luminescence peak, HEPES pH 7.7, ATP, Mg, CoA; for λmax(nm) / initial intensity: 12 μmol/L substrate, 20 μg/mL luciferase; for initial intensity: luminescence, HEPES pH 7.7; for peak luminescence wavelength shift to longer wavelength side compared with luciferin: versus luciferin
Procedure: The measurement was performed by using Fluorescence Spectrophotometer F-4500 (Hitachi).

[2] = molecular target: T1, luciferase (firefly); assay: Measurement of luminescence after reaction with luciferase (Example 5, FIG. 2); conditions: 12 μmol/L substrate, 40 μg/mL luciferase
Procedure: Luminescence spectra of Compounds 19 and 20 were measured.

[3] = molecular target: T1, luciferase (firefly); assay: HPLC analysis of luciferase reaction product with or without ATP (Example 6, FIG. 3); conditions: system added with ATP vs without ATP
Procedure: For 6-(4-aminophenethyl)-aminoluciferin (Compound 21), the enzymatic reaction was also performed in a system without ATP (all the other conditions were the same as Example 5), along with the aforementioned enzymatic reaction in Example 5. After these two enzymatic reactions, each enzymatic reaction mixture was collected and filtered by using a centrifugal separator to remove the enzyme. The solvent was evaporated by lyophilization to obtain a residue after the enzymatic reaction. A small amount of the residue was dissolved in purified water and methanol, then analyzed by HPLC. The results are shown in FIG. 3. • Analysis conditions • Elution solvent: A=H2O/0.1% trifluoroacetic acid, B=80% acetonitrile/20% • water/0.1% trifluoroacetic acid, A/B=80/20 to 20/80 (20 minutes) • Detection: UV-vis (400 nm) • Column: ODS-3, 4.6×250 mm • Flow rate: 1 mL/min

T1 sequence (P08659 whole entry, species assumed): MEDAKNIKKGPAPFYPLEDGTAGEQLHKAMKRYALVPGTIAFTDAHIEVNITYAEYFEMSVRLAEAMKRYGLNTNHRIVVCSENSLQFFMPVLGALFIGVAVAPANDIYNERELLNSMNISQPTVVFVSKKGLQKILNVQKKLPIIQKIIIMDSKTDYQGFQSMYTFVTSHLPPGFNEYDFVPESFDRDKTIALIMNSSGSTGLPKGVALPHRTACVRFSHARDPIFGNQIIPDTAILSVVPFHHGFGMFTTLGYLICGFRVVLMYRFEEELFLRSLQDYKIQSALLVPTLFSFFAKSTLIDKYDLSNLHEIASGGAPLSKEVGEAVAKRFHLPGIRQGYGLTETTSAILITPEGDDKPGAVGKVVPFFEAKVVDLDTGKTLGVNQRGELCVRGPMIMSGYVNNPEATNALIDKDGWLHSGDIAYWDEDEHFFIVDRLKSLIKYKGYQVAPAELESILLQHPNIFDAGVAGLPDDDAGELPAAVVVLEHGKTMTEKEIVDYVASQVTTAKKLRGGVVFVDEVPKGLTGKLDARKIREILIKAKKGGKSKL

Compound	relative intensity [1]	λmax(nm) [1]	initial intensity [1]	peak luminescence wavelength shift to longer wavelength side compared with luciferin [1]	luminescent property [2]	reaction as luciferase substrate (elution peak of compound after enzymatic reaction) [3]	initial intensity ([1]; listed as N-phenethylaminoluciferin)	luminescence peak ([2]; HEPES pH 7.7)
Nc1ccc2nc(C3=N[C@@H](C(=O)O)CS3)sc2c1 [aminoluciferin, reference compound]	100.0	609 nm	2044	34 nm	–	–	–	–
O=C(O)C1CSC(c2nc3ccc(NCCCc4ccccc4)cc3s2)=N1 (stereo not shown) [Compound 14, N-phenylpropylaminoluciferin]	48.0	611 nm	980	36 nm	–	–	–	–
O=C(O)C1CSC(c2nc3ccc(NCc4ccccc4)cc3s2)=N1 (stereo not shown) [Compound 12, N-benzylaminoluciferin]	5.2	623 nm	106	48 nm	–	–	–	–
Nc1ccc(CCNc2ccc3nc(C4=N[C@@H](C(=O)O)CS4)sc3c2)cc1 [Compound 21, 6-(4′-aminophenethyl)-aminoluciferin]	–	–	–	–	completely lost the luminescent property	reacted as a luciferase substrate	–	–
O=C(O)C1CSC(c2nc3ccc(NCCc4ccccc4)cc3s2)=N1 (stereo not shown) [Compound 13, N-phenethylaminoaminoluciferin]	8.6	611 nm	–	36 nm	–	–	175	–
CNc1ccc2nc(C3=NC(C(=O)O)CS3)sc2c1 (stereo not shown) [Compound 10, N-methylaminoluciferin]	66.5	624 nm	1360	49 nm	–	–	–	–
O=C(Nc1ccc(CCNc2ccc3nc(C4=NC(C(=O)O)CS4)sc3c2)cc1)OCc1ccccc1 (stereo not shown) [Compound 19, 6-(4′-benzyloxycarbonylamidophenethyl)-aminoluciferin]	–	–	–	–	luminescence was observed	–	–	about 610 nm
CN(C)c1ccc2nc(C3=NC(C(=O)O)CS3)sc2c1 (stereo not shown) [Compound 11, N,N-dimethylaminoluciferin]	44.1	641 nm	901	66 nm	–	–	–	–
